Source: US20170334899A1, “AMINO-SUBSTITUTED ISOTHIAZOLES” (Bayer Pharma Aktiengesellschaft, priority 2014, published 2017)
pIC50: −log10 of the molar value. “And” between values parts separate entries of the source, which are not always exact repeats. Equal entries are not always repeated.

Molecular target: T1, human kinase Mps-1 (Homo sapiens, UniProt P33981)
T1 construct: N-terminally GST-tagged human full length recombinant Mps-1 kinase; GST (N); purchased Invitrogen, Karslruhe, Germany PV4071
T1 sequence (P33981 1-857): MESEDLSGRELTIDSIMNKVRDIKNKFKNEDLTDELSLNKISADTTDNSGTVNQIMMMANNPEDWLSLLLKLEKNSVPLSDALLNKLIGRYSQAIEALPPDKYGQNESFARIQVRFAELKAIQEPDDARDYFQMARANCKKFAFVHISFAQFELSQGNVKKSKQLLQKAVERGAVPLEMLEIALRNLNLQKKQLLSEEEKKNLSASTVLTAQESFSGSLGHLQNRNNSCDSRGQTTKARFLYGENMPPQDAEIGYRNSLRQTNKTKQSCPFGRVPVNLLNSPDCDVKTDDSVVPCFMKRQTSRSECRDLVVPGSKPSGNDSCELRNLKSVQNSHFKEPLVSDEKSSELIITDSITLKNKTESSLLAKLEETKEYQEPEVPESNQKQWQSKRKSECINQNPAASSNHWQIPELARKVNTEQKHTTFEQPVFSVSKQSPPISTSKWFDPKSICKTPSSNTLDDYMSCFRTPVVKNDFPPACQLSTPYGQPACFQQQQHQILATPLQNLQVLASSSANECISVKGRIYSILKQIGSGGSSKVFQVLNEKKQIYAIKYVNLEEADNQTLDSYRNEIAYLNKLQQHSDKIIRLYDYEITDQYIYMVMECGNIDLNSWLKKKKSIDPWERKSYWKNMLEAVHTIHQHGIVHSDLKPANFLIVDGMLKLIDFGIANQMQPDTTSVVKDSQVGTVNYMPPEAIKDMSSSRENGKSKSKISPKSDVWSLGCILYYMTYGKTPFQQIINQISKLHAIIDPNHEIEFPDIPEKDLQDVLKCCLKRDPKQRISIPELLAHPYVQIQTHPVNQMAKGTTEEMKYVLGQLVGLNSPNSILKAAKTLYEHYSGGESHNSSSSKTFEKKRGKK
Assay: Mps-1 kinase assay (TR-FRET)
Assay type: biochemical
Conditions: Mps-1 TR-FRET kinase assay; avg; read-out: Mps1 avg (IC50 [mol/l])
How it was run: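 GST-tagged full-length recombinant human Mps-1 (~0.5 nM) pre-incubated 15 min with compound, then reacted 60 min at 22 °C with 10 μM ATP and 1 μM biotinylated peptide in Hepes pH 7.7 buffer. EDTA-stopped; TR-FRET (Eu anti-phospho-Ser/Thr to SA-XLent) 665/620 nm ratio normalised to no-inhibitor and no-enzyme controls.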

pIC50	SMILES
< 4.70	Cc1nsc(Nc2cnc(C(F)(F)F)cn2)c1C(=O)Nc1ccc(N(C)C)c(OCCCN(C)CCC(F)(F)F)c1 [Example 300, N-[4-(dimethylamino)-3-{3-[methyl(3,3,3-trifluoropropyl)amino]propoxy}phenyl]-3-methyl-5-{[5-(trifluoromethyl)pyrazin-2-yl]amino}-1,2-thiazole-4-carboxamide]
≤ 4.70	Cc1nsc(Nc2cnc(C(F)(F)F)cn2)c1C(=O)Nc1ccc(F)c(OCCCNCC(F)(F)F)c1 [Example 306, N-(4-fluoro-3-{3-[(2,2,2-trifluoroethyl)amino]propoxy}phenyl)-3-methyl-5-{[5-(trifluoromethyl)pyrazin-2-yl]amino}-1,2-thiazole-4-carboxamide]
≤ 4.70	Cc1nsc(Nc2cnc(C(F)(F)F)cn2)c1C(=O)Nc1ccc(OCCNCC(F)(F)F)nc1 [Example 322, 3-methyl-N-(6-{2-[(2,2,2-trifluoroethyl)amino]ethoxy}pyridin-3-yl)-5-{[5-(trifluoromethyl)pyrazin-2-yl]amino}-1,2-thiazole-4-carboxamide]
≤ 4.70	Cc1nsc(Nc2cnc(C(F)(F)F)cn2)c1C(=O)Nc1ccc(F)c(OC2CCN(CC(F)(F)F)C2)c1 (stereo not shown) [Example 315, N-(4-fluoro-3-{[1-(2,2,2-trifluoroethyl)pyrrolidin-3-yl]oxy}phenyl)-3-methyl-5-{[5-(trifluoromethyl)pyrazin-2-yl]amino}-1,2-thiazole-4-carboxamide]
< 4.70	Cc1nsc(Nc2cnc(C(F)(F)F)cn2)c1C(=O)Nc1ccc(N(C)C)c(OCCCN(C)CC(F)(F)F)c1 [Example 299, N-[4-(dimethylamino)-3-{3-[methyl(2,2,2-trifluoroethyl)amino]propoxy}phenyl]-3-methyl-5-{[5-(trifluoromethyl)pyrazin-2-yl]amino}-1,2-thiazole-4-carboxamide]
≤ 4.70	Cc1nsc(Nc2cnc(C(F)(F)F)cn2)c1C(=O)Nc1ccc(OCCNCCF)nc1 [Example 321, N-(6-{2-[(2-fluoroethyl)amino]ethoxy}pyridin-3-yl)-3-methyl-5-{[5-(trifluoromethyl)pyrazin-2-yl]amino}-1,2-thiazole-4-carboxamide]
< 4.70	Cc1nsc(Nc2cnc(C(F)(F)F)cn2)c1C(=O)Nc1ccc(F)c(OCCCN(C)CC(F)(F)F)c1 [Example 302, N-(4-fluoro-3-{3-[methyl(2,2,2-trifluoroethyl)amino]propoxy}phenyl)-3-methyl-5-{[5-(trifluoromethyl)pyrazin-2-yl]amino}-1,2-thiazole-4-carboxamide]
≤ 4.70	Cc1nsc(Nc2cnc(C(F)(F)F)cn2)c1C(=O)Nc1ccc(F)c(OCC2CCN(CC(F)F)C2)c1 (stereo not shown) [Example 316, N-(3-{[1-(2,2-difluoroethyl)pyrrolidin-3-yl]methoxy}-4-fluorophenyl)-3-methyl-5-{[5-(trifluoromethyl)pyrazin-2-yl]amino}-1,2-thiazole-4-carboxamide]

More lines, now with the values behind:

SMILES	pIC50
Cc1nsc(Nc2cnc3ccccc3n2)c1C(=O)Nc1cccc(NS(=O)(=O)C2CCN(CC(F)F)CC2)c1 [Example 282, N-[3-({[1-(2,2-difluoroethyl)piperidin-4-yl]sulfonyl}amino)phenyl]-3-methyl-5-(quinoxalin-2-ylamino)-1,2-thiazole-4-carboxamide]	< 4.70
Cc1nsc(Nc2cnc(C(F)(F)F)cn2)c1C(=O)Nc1ccc(OC2CCN(CCC(F)(F)F)C2)nc1 (stereo not shown) [Example 298, 3-methyl-5-{[5-(trifluoromethyl)pyrazin-2-yl]amino}-N-(6-{[1-(3,3,3-trifluoropropyl)pyrrolidin-3-yl]oxy}pyridin-3-yl)-1,2-thiazole-4-carboxamide]	< 4.70
CCN1CCN(C(=O)c2ccc(NC(=O)c3c(C)nsc3Nc3cncc(C(F)(F)F)n3)cc2)CC1 [Example 275, N-{4-[(4-ethylpiperazin-1-yl)carbonyl]phenyl}-3-methyl-5-{[6-(trifluoromethyl)pyrazin-2-yl]amino}-1,2-thiazole-4-carboxamide]	< 4.70
Cc1nsc(Nc2cncc(C(F)(F)F)n2)c1C(=O)Nc1ccc(OCCO)nc1 [Example 276, N-[6-(2-hydroxyethoxy)pyridin-3-yl]-3-methyl-5-{[6-(trifluoromethyl)pyrazin-2-yl]amino}-1,2-thiazole-4-carboxamide]	< 4.70
Cc1nsc(Nc2cnc(C(F)(F)F)cn2)c1C(=O)Nc1ccc(OC2CCN(CC(F)(F)F)C2)nc1 (stereo not shown) [Example 297, 3-methyl-N-(6-{[1-(2,2,2-trifluoroethyl)pyrrolidin-3-yl]oxy}pyridin-3-yl)-5-{[5-(trifluoromethyl)pyrazin-2-yl]amino}-1,2-thiazole-4-carboxamide]	4.92
Cc1nsc(Nc2cnc(C(F)(F)F)cn2)c1C(=O)Nc1ccc(C(=O)NC2CN(CC(F)(F)F)C2)cc1 [Example 270, 3-methyl-N-(4-{[1-(2,2,2-trifluoroethyl)azetidin-3-yl]carbamoyl}phenyl)-5-{[5-(trifluoromethyl)pyrazin-2-yl]amino}-1,2-thiazole-4-carboxamide]	< 4.70
Cc1nsc(Nc2cnc3ccccc3n2)c1C(=O)Nc1cccc(NS(=O)(=O)C2CN(CC(F)(F)F)C2)c1 [Example 285, 3-methyl-5-(quinoxalin-2-ylamino)-N-[3-({[1-(2,2,2-trifluoroethyl)azetidin-3-yl]sulfonyl}amino)phenyl]-1,2-thiazole-4-carboxamide]	< 4.70
Cc1nsc(Nc2cncc(C(F)(F)F)n2)c1C(=O)Nc1ccc(OCCCO)nc1 [Example 278, N-[6-(3-hydroxypropoxy)pyridin-3-yl]-3-methyl-5-{[6-(trifluoromethyl)pyrazin-2-yl]amino}-1,2-thiazole-4-carboxamide]	< 4.70
CCN1CCC(Oc2ccc(NC(=O)c3c(C)nsc3Nc3cc(C#N)ccn3)cn2)CC1 [Example 26, 5-[(4-Cyanopyridin-2-yl)amino]-N-{6-[(1-ethylpiperidin-4-yl)oxy]pyridin-3-yl}-3-methyl-1,2-thiazole-4-carboxamide]	≤ 4.70
Cc1nsc(Nc2cnc(C(F)(F)F)cn2)c1C(=O)Nc1ccc(C(=O)NC2CCN(CC(F)F)CC2)cc1 [Example 259, N-(4-{[1-(2,2-difluoroethyl)piperidin-4-yl]carbamoyl}phenyl)-3-methyl-5-{[5-(trifluoromethyl)pyrazin-2-yl]amino}-1,2-thiazole-4-carboxamide]	< 4.70
Cc1nsc(Nc2cnc3ccccc3n2)c1C(=O)Nc1ccc(OC2CCN(CC(F)(F)F)CC2)nc1 [Example 21, 3-Methyl-5-(quinoxalin-2-ylamino)-N-(6-{[1-(2,2,2-trifluoroethyl)piperidin-4-yl]oxy}-pyridin-3-yl)-1,2-thiazole-4-carboxamide]	≤ 4.70
Cc1nsc(Nc2cnc3ccccc3n2)c1C(=O)Nc1cccc(NS(=O)(=O)C2CCN(C(=O)OC(C)(C)C)CC2)c1 [Example 258, tert-butyl 4-{[3-({[3-methyl-5-(quinoxalin-2-ylamino)-1,2-thiazol-4-yl]carbonyl}amino)phenyl]sulfamoyl} piperidine-1-carboxylate]	< 4.70
Cc1nsc(Nc2cnc3ccccc3n2)c1C(=O)Nc1cccc(NS(=O)(=O)C2CCCN(C(=O)OCc3ccccc3)C2)c1 (stereo not shown) [Example 291, benzyl 3-{[3-({[3-methyl-5-(quinoxalin-2-ylamino)-1,2-thiazol-4-yl]carbonyl}amino)phenyl]sulfamoyl} piperidine-1-carboxylate]	< 4.70
CCNC(=O)c1cccc(NC(=O)c2c(C)nsc2Nc2ccc(C#N)cn2)c1 [Example 252, 5-[(5-cyanopyridin-2-yl)amino]-N-[3-(ethylcarbamoyl)phenyl]-3-methyl-1,2-thiazole-4-carboxamide]	< 4.70
Cc1nsc(Nc2cncc(C(F)(F)F)n2)c1C(=O)Nc1ccc(C(=O)NC2CN(CC(F)(F)F)C2)cc1 [Example 280, 3-methyl-N-(4-{[1-(2,2,2-trifluoroethyl)azetidin-3-yl]carbamoyl}phenyl)-5-{[6-(trifluoromethyl)pyrazin-2-yl]amino}-1,2-thiazole-4-carboxamide]	< 4.70 and 4.96
Cc1nsc(Nc2ccc(C#N)cn2)c1C(=O)Nc1cccc(C(=O)NC2CC2)c1 [Example 250, 5-[(5-cyanopyridin-2-yl)amino]-N-[3-(cyclopropylcarbamoyl)phenyl]-3-methyl-1,2-thiazole-4-carboxamide]	< 4.70
Cc1nsc(Nc2cncc(C(F)(F)F)n2)c1C(=O)Nc1ccc(F)c(OC2CCN(CCF)CC2)c1 [Example 269, N-(4-fluoro-3-{[1-(2-fluoroethyl)piperidin-4-yl]oxy}phenyl)-3-methyl-5-{[6-(trifluoromethyl)pyrazin-2-yl]amino}-1,2-thiazole-4-carboxamide]	< 4.70
